Assay results taken from a compilation of properties of binary mixtures (doi:10.1080/01932691.2021.1974876).

Assay: xn = mol fraction of the nth substance listed
Settings: 100 kPa

CO + CC[n+]1ccn(C)c1.N#C[S-]
x2 = 0
Settings | viscosity [mPa·s]
293.15 K | 0.59
303.15 K | 0.51
308.15 K | 0.48
313.15 K | 0.45
323.15 K | 0.41

CC[n+]1ccn(C)c1.N#C[S-] + CO
Settings | electrical conductivity [S/m] | viscosity [mPa·s]
293.15 K, x1 = 0.0988 | 1.83 | 2.9
293.15 K, x1 = 0.1966 | 2.24 | 5
293.15 K, x1 = 0.3005 | 2.25 | 7.5
293.15 K, x1 = 0.3859 | 2.16 | 9.5
293.15 K, x1 = 0.5006 | 2 | 12.3
293.15 K, x1 = 0.5972 | 1.87 | 14.9
293.15 K, x1 = 0.6996 | 1.76 | 18
293.15 K, x1 = 0.804 | 1.68 | 21
293.15 K, x1 = 0.8997 | 1.64 | 24
293.15 K, x1 = 1 | 1.64 | 27
298.15 K, x1 = 0.0988 | 2.08 | 2.5
298.15 K, x1 = 0.1966 | 2.44 | 4.4
298.15 K, x1 = 0.3005 | 2.45 | 6.4
298.15 K, x1 = 0.3859 | 2.36 | 8.1
298.15 K, x1 = 0.5006 | 2.2 | 10.6
298.15 K, x1 = 0.6996 | 1.96 | 15.2
298.15 K, x1 = 0.804 | 1.88 | 18
298.15 K, x1 = 0.8997 | 1.84 | 20
298.15 K, x1 = 1 | 1.83 | 23
303.15 K, x1 = 0.0988 | 2.34 | 2.1
303.15 K, x1 = 0.1966 | 2.67 | 3.8
303.15 K, x1 = 0.3005 | 2.66 | 5.5
303.15 K, x1 = 0.5006 | 2.42 | 9.1
303.15 K, x1 = 0.5972 | 2.29 | 11
303.15 K, x1 = 0.6996 | 2.18 | 13.1
303.15 K, x1 = 0.804 | 2.1 | 15.3
303.15 K, x1 = 0.8997 | 2.05 | 18
308.15 K, x1 = 0.1966 | 2.89 | 3.3
308.15 K, x1 = 0.3005 | 2.88 | 4.8
308.15 K, x1 = 0.3859 | 2.81 | 6.1
308.15 K, x1 = 0.5972 | 2.52 | 9.6
308.15 K, x1 = 0.6996 | 2.41 | 11.4
308.15 K, x1 = 0.804 | 2.33 | 13.4
308.15 K, x1 = 0.8997 | 2.29 | 15.5
313.15 K, x1 = 0.0988 | 2.82 | 1.7
313.15 K, x1 = 0.1966 | 3.12 | 2.9
313.15 K, x1 = 0.3005 | 3.12 | 4.2
313.15 K, x1 = 0.3859 | 3.04 | 5.3
313.15 K, x1 = 0.5006 | 2.89 | 6.9
313.15 K, x1 = 0.5972 | 2.77 | 8.3
313.15 K, x1 = 0.6996 | 2.66 | 10
313.15 K, x1 = 0.804 | 2.58 | 11.7
313.15 K, x1 = 0.8997 | 2.54 | 13.5
313.15 K, x1 = 1 | 2.52 | 15.4
318.15 K, x1 = 0.0988 | 3.06 | 1.5
318.15 K, x1 = 0.1966 | 3.4 | 2.5
318.15 K, x1 = 0.3005 | 3.4 | 3.6
318.15 K, x1 = 0.3859 | 3.31 | 4.6
318.15 K, x1 = 0.5006 | 3.15 | 6
318.15 K, x1 = 0.5972 | 3.04 | 7.3
318.15 K, x1 = 0.6996 | 2.93 | 8.8
318.15 K, x1 = 0.804 | 2.85 | 10.3
318.15 K, x1 = 0.8997 | 2.81 | 11.9
318.15 K, x1 = 1 | 2.79 | 13.6
323.15 K, x1 = 0.0988 | 3.31 | 1.35
323.15 K, x1 = 0.3859 | 3.6 | 4
323.15 K, x1 = 0.5006 | 3.4 | 5.3
323.15 K, x1 = 0.5972 | 3.3 | 6.4
323.15 K, x1 = 0.6996 | 3.22 | 7.7
